{
  "source": "patent US10865208B2",
  "about": "“ATG7 inhibitors and the uses thereof” (Millennium Pharmaceuticals, Inc., priority 2016, dated 2020)",
  "biological_target": "recombinant human His-ATG7 enzyme (Homo sapiens (Human), UniProt O95352)",
  "sequence (O95352 whole entry)": "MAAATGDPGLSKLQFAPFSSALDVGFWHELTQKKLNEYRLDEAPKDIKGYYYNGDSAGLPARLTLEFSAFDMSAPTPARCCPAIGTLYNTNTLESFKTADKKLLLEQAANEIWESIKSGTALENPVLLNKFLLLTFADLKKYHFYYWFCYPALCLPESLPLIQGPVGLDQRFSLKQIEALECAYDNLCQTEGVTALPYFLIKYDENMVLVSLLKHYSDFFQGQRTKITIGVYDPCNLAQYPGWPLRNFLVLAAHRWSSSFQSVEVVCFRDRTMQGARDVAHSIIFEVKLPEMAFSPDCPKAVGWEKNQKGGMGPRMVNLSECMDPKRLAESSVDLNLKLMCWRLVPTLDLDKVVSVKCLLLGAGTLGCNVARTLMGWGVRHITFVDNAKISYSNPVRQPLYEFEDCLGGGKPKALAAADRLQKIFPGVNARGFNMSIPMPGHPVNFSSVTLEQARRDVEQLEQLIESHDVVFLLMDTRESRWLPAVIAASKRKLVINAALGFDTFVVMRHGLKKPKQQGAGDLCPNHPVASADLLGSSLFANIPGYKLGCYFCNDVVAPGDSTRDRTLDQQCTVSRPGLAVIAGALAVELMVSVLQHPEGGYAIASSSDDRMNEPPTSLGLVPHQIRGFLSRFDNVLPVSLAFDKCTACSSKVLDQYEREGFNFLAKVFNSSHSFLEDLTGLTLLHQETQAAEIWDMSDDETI",
  "test": "ATG7 Enzyme Assay (HTRF/FRET, ATG3-GST and Flag-Gabarap)",
  "format": "biochemical",
  "settings": "for inhibition at 0.123 µM: Concentration 0.123 μM; for inhibition at 0.123 µM / inhibition at 0.111 µM: read-out: Percent Inhibition; for inhibition at 0.111 µM: Concentration 0.111 μM",
  "procedure,_shortened": "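HTRF read-out after 2 h at 24° C, using Eu-cryptate anti-Flag and XL-APC anti-GST antibodies in an EDTA stop buffer. The preceding 105 min, 24° C reaction (pH 7.5) held 10 μM ATP, 5 nM each ATG3-GST and Flag-Gabarap, and 0.15 nM human His-ATG7. Values are IC50 or percent inhibition at one concentration.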",
  "note": "pIC50: −log10 of the molar value.",
  "data": [
    {"smiles": "Cc1cccc(Sc2nn([C@@H]3O[C@H](COS(N)(=O)=O)[C@@H](O)[C@@H]3F)c3ncnc(N)c23)c1", "note": "[Compound I-141, [(2R,3R,4S,5R)-5-{4-amino-3-[(3-methylphenyl)sulfanyl]-1H-pyrazolo[3,4-d]pyrimidin-1-yl}-4-fluoro-3-hydroxytetrahydrofuran-2-yl]methyl Sulfamate]", "values": [
      {"measurement": "pIC50", "result": "7.30 to 7.70"},
      {"measurement": "inhibition at 0.123 µM", "result": 76, "unit": "%"}
    ]},
    {"smiles": "Nc1ncnc2c1c(SC(F)(F)F)nn2[C@@H]1O[C@H](COS(N)(=O)=O)[C@@H](O)[C@@H]1F", "note": "[Compound I-142, [(2R,3R,4S,5R)-5-{4-amino-3-[(trifluoromethyl)sulfanyl]-1H-pyrazolo[3,4-d]pyrimidin-1-yl}-4-fluoro-3-hydroxytetrahydrofuran-2-yl]methyl sulfamate]", "values": [
      {"measurement": "pIC50", "result": "7.00 to 7.30"},
      {"measurement": "inhibition at 0.111 µM", "result": 57, "unit": "%"}
    ]},
    {"smiles": "Nc1ncnc2c1c(Sc1ccc(C(F)(F)F)cn1)nn2[C@@H]1O[C@H](COS(N)(=O)=O)[C@@H](O)[C@@H]1F", "note": "[Compound I-143, [(2R,3R,4S,5R)-5-(4-amino-3-{[5-(trifluoromethyl)pyridin-2-yl]sulfanyl}-1H-pyrazolo[3,4-d]pyrimidin-1-yl)-4-fluoro-3-hydroxytetrahydrofuran-2-yl]methyl sulfamate]", "values": [
      {"measurement": "pIC50", "result": "7.00 to 7.30"},
      {"measurement": "inhibition at 0.111 µM", "result": 68, "unit": "%"}
    ]},
    {"smiles": "Cn1cc(CSc2nn([C@@H]3O[C@H](COS(N)(=O)=O)[C@@H](O)[C@@H]3F)c3ncnc(N)c23)cn1", "note": "[Compound I-145, [(2R,3R,4S,5R)-5-(4-amino-3-{[(1-methyl-1H-pyrazol-4-yl)methyl]sulfanyl}-1H-pyrazolo[3,4-d]pyrimidin-1-yl)-4-fluoro-3-hydroxytetrahydrofuran-2-yl]methyl sulfamate]", "values": [
      {"measurement": "pIC50", "result": "7.30 to 7.70"},
      {"measurement": "inhibition at 0.111 µM", "result": 74, "unit": "%"}
    ]},
    {"smiles": "Nc1ncnc2c1c(Sc1ccc(Cl)cn1)nn2[C@@H]1O[C@H](COS(N)(=O)=O)[C@@H](O)[C@@H]1F", "note": "[Compound I-146, [(2R,3R,4S,5R)-5-{4-amino-3-[(5-chloropyridin-2-yl)sulfanyl]-1H-pyrazolo[3,4-d]pyrimidin-1-yl}-4-fluoro-3-hydroxytetrahydrofuran-2-yl]methyl sulfamate]", "values": [
      {"measurement": "pIC50", "result": "7.30 to 7.70"},
      {"measurement": "inhibition at 0.111 µM", "result": 86, "unit": "%"}
    ]},
    {"smiles": "Nc1ncnc2c1c(SC1CCC1)nn2[C@@H]1O[C@H](COS(N)(=O)=O)[C@@H](O)[C@@H]1F", "note": "[Compound I-147, {(2R,3R,4S,5R)-5-[4-amino-3-(cyclobutylsulfanyl)-1H-pyrazolo[3,4-d]pyrimidin-1-yl]-4-fluoro-3-hydroxytetrahydrofuran-2-yl}methyl sulfamate]", "values": [
      {"measurement": "pIC50", "result": "> 7.70"},
      {"measurement": "inhibition at 0.111 µM", "result": 89, "unit": "%"}
    ]},
    {"smiles": "Nc1ncnc2c1c(SCC1CCC1)nn2[C@@H]1O[C@H](COS(N)(=O)=O)[C@@H](O)[C@@H]1F", "note": "[Compound I-148, [(2R,3R,4S,5R)-5-{4-amino-3-[(cyclobutylmethyl)sulfanyl]-1H-pyrazolo[3,4-d]pyrimidin-1-yl}-4-fluoro-3-hydroxytetrahydrofuran-2-yl]methyl sulfamate]", "values": [
      {"measurement": "pIC50", "result": "> 7.70"},
      {"measurement": "inhibition at 0.111 µM", "result": 83, "unit": "%"}
    ]},
    {"smiles": "Nc1ncnc2c1c(Sc1ccncc1)nn2[C@@H]1O[C@H](COS(N)(=O)=O)[C@@H](O)[C@@H]1F", "note": "[Compound I-150, {(2R,3R,4S,5R)-5-[4-amino-3-(pyridin-4-ylsulfanyl)-1H-pyrazolo[3,4-d]pyrimidin-1-yl]-4-fluoro-3-hydroxytetrahydrofuran-2-yl}methyl Sulfamate]", "values": [
      {"measurement": "pIC50", "result": "6.30 to 7.00"},
      {"measurement": "inhibition at 0.111 µM", "result": 46, "unit": "%"}
    ]},
    {"smiles": "Nc1ncnc2c1c(SCCO)nn2[C@@H]1O[C@H](COS(N)(=O)=O)[C@@H](O)[C@@H]1F", "note": "[Compound I-151, [(2R,3R,4S,5R)-5-{4-amino-3-[(2-hydroxyethyl)sulfanyl]-1H-pyrazolo[3,4-d]pyrimidin-1-yl}-4-fluoro-3-hydroxytetrahydrofuran-2-yl]methyl Sulfamate]", "values": [
      {"measurement": "inhibition at 0.111 µM", "result": 76, "unit": "%"}
    ]},
    {"smiles": "Cc1ccc(Sc2nn([C@@H]3O[C@H](COS(N)(=O)=O)[C@@H](O)[C@@H]3F)c3ncnc(N)c23)nc1", "note": "[Compound I-152, [(2R,3R,4S,5R)-5-{4-amino-3-[(5-methylpyridin-2-yl)sulfanyl]-1H-pyrazolo[3,4-d]pyrimidin-1-yl}-4-fluoro-3-hydroxytetrahydrofuran-2-yl]methyl sulfamate]", "values": [
      {"measurement": "pIC50", "result": "> 7.70"},
      {"measurement": "inhibition at 0.111 µM", "result": 88, "unit": "%"}
    ]},
    {"smiles": "N#Cc1cccc(Sc2nn([C@@H]3O[C@H](COS(N)(=O)=O)[C@@H](O)[C@@H]3F)c3ncnc(N)c23)c1", "note": "[Compound I-153, [(2R,3R,4S,5R)-5-{4-amino-3-[(3-cyanophenyl)sulfanyl]-1H-pyrazolo[3,4-d]pyrimidin-1-yl}-4-fluoro-3-hydroxytetrahydrofuran-2-yl]methyl sulfamate]", "values": [
      {"measurement": "pIC50", "result": "7.00 to 7.30"},
      {"measurement": "inhibition at 0.111 µM", "result": 58, "unit": "%"}
    ]},
    {"smiles": "COCCSc1nn([C@@H]2O[C@H](COS(N)(=O)=O)[C@@H](O)[C@@H]2F)c2ncnc(N)c12", "note": "[Compound I-154, [(2R,3R,4S,5R)-5-{4-amino-3-[(2-methoxyethyl)sulfanyl]-1H-pyrazolo[3,4-d]pyrimidin-1-yl}-4-fluoro-3-hydroxytetrahydrofuran-2-yl]methyl sulfamate]", "values": [
      {"measurement": "pIC50", "result": "7.00 to 7.30"},
      {"measurement": "inhibition at 0.111 µM", "result": 64, "unit": "%"}
    ]},
    {"smiles": "Nc1ncnc2c1c(SCc1ccccc1)nn2[C@@H]1O[C@H](COS(N)(=O)=O)[C@@H](O)[C@@H]1F", "note": "[Compound I-155, {(2R,3R,4S,5R)-5-[4-amino-3-(benzylsulfanyl)-1H-pyrazolo[3,4-d]pyrimidin-1-yl]-4-fluoro-3-hydroxytetrahydrofuran-2-yl}methyl sulfamate]", "values": [
      {"measurement": "pIC50", "result": "7.30 to 7.70"},
      {"measurement": "inhibition at 0.123 µM", "result": 75, "unit": "%"}
    ]},
    {"smiles": "Nc1ncnc2c1c(Sc1nnc3ccccn13)nn2[C@@H]1O[C@H](COS(N)(=O)=O)[C@@H](O)[C@@H]1F", "note": "[Compound I-156, {(2R,3R,4S,5R)-5-[4-amino-3-([1,2,4]triazolo[4,3-a]pyridin-3-ylsulfanyl)-1H-pyrazolo[3,4-d]pyrimidin-1-yl]-4-fluoro-3-hydroxytetrahydrofuran-2-yl}methyl sulfamate]", "values": [
      {"measurement": "pIC50", "result": "6.30 to 7.00"},
      {"measurement": "inhibition at 0.111 µM", "result": 30, "unit": "%"}
    ]},
    {"smiles": "Nc1ncnc2c1c(Sc1cccc(C(F)(F)F)c1)nn2[C@@H]1O[C@H](COS(N)(=O)=O)[C@@H](O)[C@@H]1F", "note": "[Compound I-158, [(2R,3R,4S,5R)-5-(4-amino-3-{[3-(trifluoromethyl)phenyl]sulfanyl}-1H-pyrazolo[3,4-d]pyrimidin-1-yl)-4-fluoro-3-hydroxytetrahydrofuran-2-yl]methyl sulfamate]", "values": [
      {"measurement": "pIC50", "result": "7.00 to 7.30"},
      {"measurement": "inhibition at 0.111 µM", "result": 56, "unit": "%"}
    ]},
    {"smiles": "NC(=O)CSc1nn([C@H]2C[C@H](O)[C@@H](COS(N)(=O)=O)O2)c2ncnc(N)c12", "note": "[Compound I-159, [(2R,3S,5R)-5-{4-amino-3-[(2-amino-2-oxoethyl)sulfanyl]-1H-pyrazolo[3,4-d]pyrimidin-1-yl}-3-hydroxytetrahydrofuran-2-yl]methyl sulfamate]", "values": [
      {"measurement": "pIC50", "result": "6.30 to 7.00"},
      {"measurement": "inhibition at 0.111 µM", "result": 29, "unit": "%"}
    ]},
    {"smiles": "Nc1ncnc2c1c(Sc1ccc3c(c1)CCC3)nn2[C@H]1C[C@H](O)[C@@H](COS(N)(=O)=O)O1", "note": "[Compound I-160, {(2R,3S,5R)-5-[4-amino-3-(2,3-dihydro-1H-inden-5-ylsulfanyl)-1H-pyrazolo[3,4-d]pyrimidin-1-yl]-3-hydroxytetrahydrofuran-2-yl}methyl Sulfamate]", "values": [
      {"measurement": "pIC50", "result": "7.00 to 7.30"},
      {"measurement": "inhibition at 0.111 µM", "result": 62, "unit": "%"}
    ]},
    {"smiles": "Cc1ccc(Sc2nn([C@H]3C[C@H](O)[C@@H](COS(N)(=O)=O)O3)c3ncnc(N)c23)c(F)c1", "note": "[Compound I-161, [(2R,3S,5R)-5-{4-amino-3-[(2-fluoro-4-methylphenyl)sulfanyl]-1H-pyrazolo[3,4-d]pyrimidin-1-yl}-3-hydroxytetrahydrofuran-2-yl]methyl Sulfamate]", "values": [
      {"measurement": "pIC50", "result": "7.00 to 7.30"},
      {"measurement": "inhibition at 0.111 µM", "result": 59, "unit": "%"}
    ]},
    {"smiles": "Nc1ncnc2c1c(SCCO)nn2[C@H]1C[C@H](O)[C@@H](COS(N)(=O)=O)O1", "note": "[Compound I-162, [(2R,3S,5R)-5-{4-amino-3-[(2-hydroxyethyl)sulfanyl]-1H-pyrazolo[3,4-d]pyrimidin-1-yl}-3-hydroxytetrahydrofuran-2-yl]methyl Sulfamate]", "values": [
      {"measurement": "pIC50", "result": "6.30 to 7.00"},
      {"measurement": "inhibition at 0.111 µM", "result": 50, "unit": "%"}
    ]},
    {"smiles": "CC(C)(C)c1ccc(Sc2nn([C@H]3C[C@H](O)[C@@H](COS(N)(=O)=O)O3)c3ncnc(N)c23)cc1", "note": "[Compound I-163, [(2R,3S,5R)-5-{4-amino-3-[(4-tert-butylphenyl)sulfanyl]-1H-pyrazolo[3,4-d]pyrimidin-1-yl}-3-hydroxytetrahydrofuran-2-yl]methyl sulfamate]", "values": [
      {"measurement": "pIC50", "result": "7.00 to 7.30"},
      {"measurement": "inhibition at 0.111 µM", "result": 58, "unit": "%"}
    ]},
    {"smiles": "Nc1ncnc2c1c(SC1CCC1)nn2[C@H]1C[C@H](O)[C@@H](COS(N)(=O)=O)O1", "note": "[Compound I-164, {(2R,3S,5R)-5-[4-amino-3-(cyclobutylsulfanyl)-1H-pyrazolo[3,4-d]pyrimidin-1-yl]-3-hydroxytetrahydrofuran-2-yl}methyl sulfamate]", "values": [
      {"measurement": "pIC50", "result": "7.00 to 7.30"},
      {"measurement": "inhibition at 0.111 µM", "result": 70, "unit": "%"}
    ]},
    {"smiles": "Nc1ncnc2c1c(SCC(F)F)nn2[C@H]1C[C@H](O)[C@@H](COS(N)(=O)=O)O1", "note": "[Compound I-165, [(2R,3S,5R)-5-{4-amino-3-[(2,2-difluoroethyl)sulfanyl]-1H-pyrazolo[3,4-d]pyrimidin-1-yl}-3-hydroxytetrahydrofuran-2-yl]methyl sulfamate]", "values": [
      {"measurement": "pIC50", "result": "7.00 to 7.30"},
      {"measurement": "inhibition at 0.111 µM", "result": 62, "unit": "%"}
    ]},
    {"smiles": "Nc1ncnc2c1c(Sc1ccc3ccccc3c1)nn2[C@H]1C[C@H](O)[C@@H](COS(N)(=O)=O)O1", "note": "[Compound I-166, {(2R,3S,5R)-5-[4-amino-3-(2-naphthylsulfanyl)-1H-pyrazolo[3,4-d]pyrimidin-1-yl]-3-hydroxytetrahydrofuran-2-yl}methyl sulfamate]", "values": [
      {"measurement": "pIC50", "result": "6.30 to 7.00"},
      {"measurement": "inhibition at 0.111 µM", "result": 50, "unit": "%"}
    ]},
    {"smiles": "Nc1ncnc2c1c(SC1CC1)nn2[C@H]1C[C@H](O)[C@@H](COS(N)(=O)=O)O1", "note": "[Compound I-167, {(2R,3S,5R)-5-[4-amino-3-(cyclopropylsulfanyl)-1H-pyrazolo[3,4-d]pyrimidin-1-yl]-3-hydroxytetrahydrofuran-2-yl}methyl sulfamate]", "values": [
      {"measurement": "pIC50", "result": "7.00 to 7.30"},
      {"measurement": "inhibition at 0.111 µM", "result": 68, "unit": "%"}
    ]}
  ]
}
